Data taken from patent US9107914B2, “Beta-carbolines for use in the treatment of hearing loss and vertigo” (AudioCure Pharma GmbH, priority 2009, dated 2015).
“Also recorded” adds a separate entry of the source.

B1: GDNF: Glial cell line derived neurotrophic factor (protein, UniProt P39905 78-211, looked up)
Glial cell line-derived …: SPDKQMAVLPRRERNRQAAAANPENSRGKGRRGQRGKNRGCVLTAIHLNVTDLGLGYETKEELIFRYCSGSCDAAETTYDKILKNLSRNRRLVSDKVGQACCRPIAFDDDLSFLDDNLVYHILRKHSAKRCGCI
B2: BDNF: brain-derived neurotrophic factor (protein, UniProt P23560 19-247, looked up)
Neurotrophic factor BDNF …: APMKEANIRGQGGLAYPGVRTHGTLESVNGPKAGSRGLTSLADTFEHVIEELLDEDQKVRPNEENNKDADLYTSRVMLSSQVPLEPPLLFLLEEYKNYLDAANMSMRVRRHSDPARRGELSVCDSISEWVTAADKKTAVDMSGGTVTVLEKVPVSKGQLKQYFYETKCNPMGYTKEGCRGIDKRHWNSQCRTTQSYVRALTMDSKKRIGWRFIRIDTSCVCTLTIKRGR

Experiments:
[1] = system: human SH-SY5Y neuroblastoma cells; assay: Differentiation model / neurite length in human neuroblastoma cells; assay type: cell-based; conditions: 14 days; for neurite length: vs control group, P<0.001; for differentiation / neurite length in comparison to 9-methyl-β-carboline: SH-SY5Y cells; as to differentiation / neurite length in comparison to 9-methyl-β-carboline: key: +: marginally better than 9-methyl-β-carboline; ±: equal to 9-methyl-β-carboline; −: marginally worse than 9-methyl-β-carboline
Excerpt: Human neuroblastoma cells were utilised for this model. These are permanent cells, which are present as an indifferent type in culture. They can be activated to differentiate, i.e. transformation into neuronal cells, by addition of specific substances such as retinoic acid, […] (BDNF) or activator of the enzyme, protein kinase C to the culture medium. We used this cell system to analyse whether beta-carbolines can transform the indifferent cells into the neuronal type. Criteria were: less proliferation (less cells per field of view); smaller cell bodies (transformation from the indifferent type to the neuronal type); cytodendrites (neuritis), which provide connections to neighbouring cells or clusters of neighbouring cells.
Human SH-SY5Y neuroblastoma cells were incubated in culture for 14 days with solvent (Ko) or test substance. A shift of the graph to the right side for a test substance, pointed to an increase of neurite length, when compared to the graph for the control substance. Statistical differences between the treated groups were calculated with the Tukey's Multiple Comparison-Test.
Shown are the cumulative frequency distributions of neurite lengths, determined in at least 20 randomly selected visual fields (each 640.000 μm^2) in three independent experiments. A steep rise pointed to a predominance of short neuritis, wherein for example in control cells, a less steep rise signified a greater number of longer neurites. The horizontal maximum indicated the maximal neurite length of the respective treatment group. […] The effects are dose- and substance-dependent: 1-methyl-β-carboline <6-methoxy-9-methyl-β-carboline <9-methyl-β-carboline <9-fluorethyl-β-carboline).
The effects of the other inventive β-carbolines (compounds A-L and VI-XX) on neurite length were determined, as described above, in human SH-SY5Y neuroblastoma cells after 14 days.

[2] = system: BDNF (brain-derived neurotrophic factor) in human SH-SY5Y cells; assay: Relative gene expression of BDNF (FIG. 4A); assay type: cell-based
Description: (§1) Next, it was investigated, whether the substances could induce the formation of nerve growth factors in human SH-SY5Y neuroblastoma cell. After 2 and 14 days the cells were harvested and the expression of the target gene and the house keeping gene was determined via reverse transcriptase-PCR.

[3] = system: transcription factor CREB in SH-SY5Y cells; assay: Dual luciferase method for intracellular cascades (FIG. 5); assay type: cell-based, human; conditions: dose-dependent activating effect, 48 h incubation, three independent experiments
Excerpt: The effects of β-carbolines on several intracellular cascades were investigated. Of them it is known, that at their respective ends, several transcription factors are formed in the cell nucleus, that in turn activate the transcription of a group of further genes. The dual luciferase method was used. One luciferase served as transfection control, whereas the second is coupled to the appropriate specific binding sequence of the DNA.

inner ear of guinea pigs = assay: Prophylaxis of hearing damages in an animal model, gentamicin and etacrynic acid (Example 30); assay type: in vivo; conditions: infusion to the round window recess, gentamicin and etacrynic acid i.v.
Description: A solution containing β-carboline was infused continuously into the recess in front of the membrane of the round window of guinea pigs by a osmotic mini-pump for three days. The following β-carbolines were tested individually in this experiment: 9-methyl-β-carboline, compounds XI, XII, XVIII, XIX as well as C to L.
Then, a standard dose of gentamicin and etacrynic acid was injected intravenously into guinea pigs. Gentamicin and etacrynic acid damage the inner ear. Typically, they are used as toxins to induce deafness in such studies. The infusion was continued for further two days. Then, the electrophysiological activity of the nerve cells of the brain stem, which transmit the impulses of the inner ear, was deduced after acoustic irradiation of the ear with […]. The non-β-carboline-treated ear served as intraindividual control (Prieskorn D M, Miller J M. Technical report: chronic and acute intracochlear infusion in rodents. Hear Res, 2000; 140(1-2): 212-215). Moreover, animals were infused with 9-Me-BC only but not with gentamicin as a further control.
The measured electrophysiological activity of the nerve cells of the acoustic nerve (hearing threshold) served as a measure of the degree of therapeutic effect of the used β-carbolines on the inner ear. As can be learned from Table 3, the used β-carbolines show the increase in electrophysiological activity of the nerve cells of the acoustic nerve. It can be concluded from this that β-carbolines are useful for the treatment of hearing damages, vertigo, and vestibular disorders.

[4] = system: organ of Corti of the cochlea of rats; assay: Real-time RT-PCR of organ cultures of the organ of Corti (Example 14); assay type: cell-based; conditions: 90 μM, 48 hours, rat organ of Corti culture, vs solvent (100%)
Description: Initially, organ cultures of the organ of Corti of the cochlea of rats were prepared, which were brought into contact with 9-methyl-β-carboline in a next step. Expression of different neurotrophins was measured as a marker of the effects of 9-methyl-β-carboline on the organs or Corti. For this, RNA was isolated from Corti's tissue, transcribed into cDNA, and the concentrations of the cDNAs of the neurotrophins were determined with help of the real-time RT-PCR method.
Organs of Corti of the cochlea of 40 rats were prepared in several sessions on day 4 post partum. […] Amount and quality of the RNA were determined photometrical. […] Real-time reverse transcriptase polymerase chain reaction (real-time RT-PCR) was performed with the LightCycler System of Roche Applied Science, Mannheim, using the fluorescence resonance energy transfer (FRET) method. […] The gen for hydroxymethylbilane synthase (HMBS) was selected as a so-called housekeeping gene for relative quantification. […] The measured fluorescence of each cycle was analysed by the LightCycler Software. […] Quantification was conducted by the 2^−ΔΔC(t) method of Livak and Schmittgen (Livak K J and Schmittgen T D. Analysis of relative gene expression data using real-time quantitative PCR and the 2(-Delta Delta C(T)) Methods 2001; 25:402-8).

[5] = system: NPY (Neuropeptide Y) in human SH-SY5Y cells; assay: Relative gene expression of NPY (FIG. 4E); assay type: cell-based; conditions: after 14 days of exposure
Description: as §1

[6] = parameters: species or system guinea pigs; conditions: guinea pig, in vivo
Description: Thus, infusion took place into the middle ear and, therefore, outside the cochlea of the inner ear, whereby the tympanic membrane was not damaged. After three hours, 5 μL of perilymph were obtained from the apex, the tip of the cochlea, i.e. the part of the cochlea distanced most from the membrane of the round window, by a previously implanted cannula. The sample was diluted and was separated immediately by high-pressure liquid chromatography (HPLC) without further processing; and the natural fluorescence of β-carboline was determined by a fluorescence detector. The experiment was repeated with a second guinea pig and identical conditions but the sample was obtained after a 10-hour infusion. […] In a second series, 20 μg of 9-Me-BC were applied into the perilymph straight through the membrane of the round window, i.e. intra-cochlear. After three hours and after 20 hours in case of another animal, perilymph was obtained and analysed as described above. Results are depicted in FIG. 6 together with a calibration series. […] A single maximum, which represents 9-Me-BC, can be seen after 7 minutes in the upper chromatogram of FIG. 6. Clearly, no further maximum is to be seen; thus, 9-Me-BC is not degraded.

[7] = system: BDNF, GDNF, NGF and NPY in human SH-SY5Y neuroblastoma cells; assay: Gene expression of growth factors by reverse transcriptase-PCR (Table 2 summary); assay type: cell-based; conditions: after 2 and 14 days; also: key: +: marginally better than 9-methyl-β-carboline; ±: equal to 9-methyl-β-carboline; −: marginally worse than 9-methyl-β-carboline
Description: as §1
The effects of the other inventive β-carbolines (compounds A-L and VI-XX) on the gene expression of BDNF, GDNF, NGF and NPY were determined, as described above, in human SH-SY5Y neuroblastoma cells after 2 and 14 days.

[8] = system: cerebellin-1 precursor protein (CBLN) in human SH-SY5Y cells; assay: Relative gene expression of CBLN (FIG. 4B); assay type: cell-based
Description: as §1

[9] = system: cells of the spiral ganglion of the inner ear; conditions: 48 hours of culture; cited from earlier work

Molecule	differentiation / neurite length in comparison to 9-methyl-β-carboline [1]	formation of the transcription factor CREB relative to the level in control cells [3]	effect on the inner ear (electrophysiological activity, hearing threshold) in comparison to 9-methyl-β-carboline (inner ear of guinea pigs)	gene expression of BDNF, GDNF, NGF and NPY in comparison to 9-methyl-β-carboline [7]	further results
COc1ccc2c(c1)c1ccncc1n2C [9-Me-6-MeO—BC (XVIII), 6-methoxy-9-methyl-9H-β-carboline]	+	up to ten times	±		neurite length ([1]; 50 μM): increase in neurite length; BDNF transcription ([2]; SH-SY5Y cells): enormous, dose-dependent increase
Cn1c2ccccc2c2ccncc21 [9-methyl-β-carboline]		up to ten times			generation of neurotrophins Armetl 1, BDNF, Cbln 1, NGF and NPY (transcription) [4]: activated; dopaminergic proteins (dopamine receptor subtype 1, tyrosine hydroxylase) transcription ([4]; listed as 9-Me-BC): activates specifically characteristic proteins of dopaminergic nerve cells; also recorded: increasingly activated; neurite length ([1]; 70, 90 or 110 μM): increase in neurite length; concentration(s) that stimulated BDNF transcription ([2]; after two days): 110 µM; NPY gene expression, concentration dependence [5]: lower concentrations were more effective than the higher concentrations; degradation in perilymph (further chromatographic maxima) [6]: not degraded; penetration of the membrane of the round window into the perilymph [6]: penetrates the membrane of the round window
c1ccc(Cn2c3ccccc3c3ccncc32)cc1 [compound I]	−		−	−	
COC(=O)CCn1c2ccccc2c2ccncc21 [compound J]	±		±	−	
CC(C)C(C)Cn1c2ccccc2c2ccncc21 (centres unmarked) [compound K]	±		±	−	
CN(C)CCn1c2ccccc2c2ccncc21 [compound L]	+		+	±	
FCCn1c2ccccc2c2ccncc21 [fluorethyl-BC (XIX), 9-(2-fluoroethyl)-9H-β-carboline]	+	up to ten times	+		neurite length ([1]; 30, 50 or 70 μM): increase in neurite length; CBLN gene expression ([8]; after 14 days of exposure): roughly the same stimulation at all investigated concentrations; CBLN gene expression ([8]; after two days exposure): increased; NPY gene expression, concentration dependence [5]: lower concentrations were more effective than the higher concentrations
Cc1nccc2c1[nH]c1ccccc12 [harman, 1-methyl-β-carboline, reference compound]	−		−	−	neurite length ([1]; 110 μM): increase in neurite length
B1					survival of cells of the spiral ganglion [9]: neuroprotective properties
B2					survival of cells of the spiral ganglion [9]: neuroprotective properties
